{"source": "patent US20060251638A1", "about": "“Cytoprotection through the use of hif hydroxylase inhibitors” (priority 2003, published 2006)", "key": {"[1]": {"test_system": "H9c2 rat cardiomyocytes", "assay": "Intracellular ATP levels in H9c2 cardiomyocytes after oxygen and glucose deprivation (glucose-free DMEM, 2 mM KCN)", "assay_type": "cell-based", "details": "H9c2, 20 μM pretreatment 24 hours, glucose-free DMEM and 2 mM KCN for 30 minutes; vehicle control 415", "description": "In similar experiments, H9c2 rat cardiomyocytes were pretreated with either vehicle control (0.5% DMSO) or 20 μM of Compound A, Compound B, Compound C, Compound D, Compound E, Compound F, Compound G, or compound H. After 24 hours, cells were washed with serum-free DMEM and subjected to oxygen and glucose deprivation by incubating the cells in glucose-free DMEM and 2 mM KCN for 30 minutes. Intracellular ATP levels were then determined."}, "[2]": {"test_system": "HO-1 protein", "assay": "HO-1 protein levels in H9c2 cardiomyocytes by ELISA", "assay_type": "cell-based, rat", "details": "H9c2, 100 μM compound; control 2.86", "description": "In another series of experiments, H9c2 rat cardiomyocytes were treated with either vehicle control or with various concentrations (1 μM, 3 μM, 10 μM, 30 μM, and 100 μM) of compound C or compound G. Cell lysates were harvested and HO-1 protein levels determined by ELISA according to the manufacturer's instructions (cat # EKS-810; Stressgen, Victoria, BC, Canada). Data shown below in Table 4 represents values obtain with 100 μM compound."}, "[3]": {"test_system": "Human umbilical vein endothelial cells (HUVEC)", "assay": "TNF-α induced apoptosis in HUVEC (Annexin V immunostaining, morphology)", "assay_type": "cell-based", "description": "Human umbilical vein endothelial cells (HUVEC) were plated in DMEM containing 0.5% fetal bovine serum that was supplemented with 1 ng/ml of vascular endothelial growth factor. After overnight culture, the cells were washed with PBS and incubated for an additional 24 hours in DMEM containing 0.5% fetal bovine serum and either vehicle control (DMSO) or 25 μM of compound G. The cell cultures were subsequently washed and re-cultured with DMEM containing 0.5% fetal bovine serum containing 20 ng/ml TNF-α for an additional 4 or 8 hours. The cells were then harvested and immunostained with either FITC-conjugated isotype control or FITC-conjugated Annexin V for identification and determination of cells undergoing apoptosis. (Koopman et al. (1994) Blood 84:1415-1420.) Annexin V preferentially binds negatively charged phospholipids, like phosphatidylserine, which are associated with plasma membrane changes in apoptotic cells. Annexin V binding allows for the identification and quantitation of cells at early stages of apoptosis, when apoptosis occurs in the absence of DNA fragmentation, and the discrimination between cell death associated with apoptosis or with necrosis.\nIn replicate HUVEC cultures treated as described above, light micrographs were taken of cells treated with vehicle control (DMSO) and compound G following stimulation with 20 ng/ml TNF-α for 4 and 8 hours (FIG. 6). […]"}}, "data": [{"molecule": "O=C(O)CNC(=O)c1ncc2cc(Oc3ccccc3)ccc2c1O", "note": "[Compound G, [(4-Hydroxy-7-phenoxy-isoquinoline-3-carbonyl)-amino]-acetic acid]", "values": [{"measurement": "ATP (relative light units)", "setting": "[1]", "value": 2128.3, "unit": "relative light units"}, {"measurement": "HO-1 (ng/mg total cell protein)", "setting": "[2]", "value": 28.54, "unit": "ng/mg total cell protein"}, {"measurement": "annexin V immunostaining (mean fluorescence intensity) versus TNF-α alone", "setting": "[3]; 25 μM for 24 hours prior to 20 ng/ml TNF-α for 4 or 8 hours", "value": "reduced annexin V immunostaining"}, {"measurement": "HUVEC morphology after TNF-α (light micrographs)", "setting": "[3]; 25 μM prior to 20 ng/ml TNF-α for 4 and 8 hours", "value": "viable and normal morphology"}]}]}
